The source of these data is patent US10758534B2 (Vertex Pharmaceuticals Incorporated, priority 2014, dated 2020).

The target in one experiment is T1, F508del (Homo sapiens, UniProt P13569, DEL508-508).
T1 construct: expressed in transfected cells
T1 sequence (P13569 with tags, fused parts or gaps DEL508-508): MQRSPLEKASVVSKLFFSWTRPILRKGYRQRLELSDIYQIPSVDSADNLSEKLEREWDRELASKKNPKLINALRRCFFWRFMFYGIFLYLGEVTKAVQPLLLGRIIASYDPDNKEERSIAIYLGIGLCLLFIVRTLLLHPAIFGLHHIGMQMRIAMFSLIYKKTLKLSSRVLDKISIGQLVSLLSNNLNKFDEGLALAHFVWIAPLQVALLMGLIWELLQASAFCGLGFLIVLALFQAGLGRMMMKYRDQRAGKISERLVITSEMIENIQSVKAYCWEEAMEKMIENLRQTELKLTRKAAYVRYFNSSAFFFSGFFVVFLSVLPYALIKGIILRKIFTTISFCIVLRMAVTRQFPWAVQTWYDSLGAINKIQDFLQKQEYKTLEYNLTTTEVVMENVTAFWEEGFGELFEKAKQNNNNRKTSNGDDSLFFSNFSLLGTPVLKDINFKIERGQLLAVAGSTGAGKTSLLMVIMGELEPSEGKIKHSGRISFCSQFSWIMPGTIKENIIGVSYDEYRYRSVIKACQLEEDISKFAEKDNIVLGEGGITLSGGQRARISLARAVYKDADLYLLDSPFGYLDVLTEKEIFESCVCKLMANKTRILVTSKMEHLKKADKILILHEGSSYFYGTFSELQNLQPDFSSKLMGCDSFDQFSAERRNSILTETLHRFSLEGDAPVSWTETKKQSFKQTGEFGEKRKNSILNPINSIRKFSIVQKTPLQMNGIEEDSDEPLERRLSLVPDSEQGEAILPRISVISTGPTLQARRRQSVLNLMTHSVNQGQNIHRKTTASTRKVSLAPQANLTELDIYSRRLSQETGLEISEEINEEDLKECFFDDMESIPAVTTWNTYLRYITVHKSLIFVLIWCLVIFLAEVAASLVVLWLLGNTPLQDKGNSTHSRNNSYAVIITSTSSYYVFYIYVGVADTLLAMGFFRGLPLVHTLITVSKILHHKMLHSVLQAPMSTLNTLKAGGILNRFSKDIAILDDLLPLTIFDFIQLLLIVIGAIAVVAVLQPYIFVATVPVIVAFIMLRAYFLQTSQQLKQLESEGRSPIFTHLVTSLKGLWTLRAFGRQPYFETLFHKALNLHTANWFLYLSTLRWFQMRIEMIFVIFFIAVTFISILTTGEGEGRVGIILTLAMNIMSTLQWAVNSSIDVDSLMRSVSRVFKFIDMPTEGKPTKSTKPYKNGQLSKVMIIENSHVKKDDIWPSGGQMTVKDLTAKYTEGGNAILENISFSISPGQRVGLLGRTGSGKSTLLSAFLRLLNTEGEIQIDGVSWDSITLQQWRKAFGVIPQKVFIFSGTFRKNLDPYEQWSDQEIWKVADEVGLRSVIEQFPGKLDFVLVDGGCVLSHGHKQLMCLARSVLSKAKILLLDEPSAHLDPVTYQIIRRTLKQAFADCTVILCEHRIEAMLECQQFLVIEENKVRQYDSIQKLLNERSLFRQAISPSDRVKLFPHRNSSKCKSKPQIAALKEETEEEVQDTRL
The experiment can be described thus: Protocol 2: FRET membrane potential optical assay (VIPR), identification of correction compounds. Type of experiment: cell-based. The following applies: F508del CFTR modulator activity; compounds of Table 1; read-out: EC30. The text has this: Membrane potential optical methods for assaying F508del modulation properties of compounds.
These voltage sensitive assays are based on the change in fluorescence resonant energy transfer (FRET) between the membrane-soluble, voltage-sensitive dye, DiSBAC2(3), and a fluorescent phospholipid, CC2-DMPE, which is attached to the outer leaflet of the plasma membrane and acts as a FRET donor. Changes in membrane potential (Vm) cause the negatively charged DiSBAC2(3) to redistribute across the plasma membrane and the amount of energy transfer from CC2-DMPE changes accordingly. The changes in fluorescence emission were monitored using VIPR™ II, which is an integrated liquid handler and fluorescent detector designed to conduct cell-based screens in 96- or 384-well microtiter plates.
To identify small molecules that correct the trafficking defect associated with F508del; a single-addition HTS assay format was developed. The cells were incubated in serum-free medium for 16 hrs at 37° C. in the presence or absence (negative control) of test compound. As a positive control, cells plated in 384-well plates were incubated for 16 hrs at 27° C. to “temperature-correct” F508del. The cells were subsequently rinsed 3× with Krebs Ringers solution and loaded with the voltage-sensitive dyes. To activate F508del, 10 μM forskolin and the CFTR potentiator, genistein (20 μM), were added along with Cl^−-free medium to each well. The addition of Cl^−-free medium promoted Cl^− efflux in response to F508del activation and the resulting membrane depolarization was optically monitored using the FRET-based voltage-sensor dyes.
• Bath Solution #1: (in mM) NaCl 160, KCl 4.5, CaCl2 2, MgCl2 1, HEPES 10, pH 7.4 with NaOH. • Chloride-free bath solution: Chloride salts in Bath Solution #1 (above) are substituted with gluconate salts. • CC2-DMPE: Prepared as a 10 mM stock solution in DMSO and stored at −20° C. • DiSBAC2(3): Prepared as a 10 mM stock in DMSO and stored at −20° C. Cell Culture
NIH3T3 mouse fibroblasts stably expressing F508del are used for optical measurements of membrane potential. The cells are maintained at 37° C. in 5% CO2 and 90% humidity in Dulbecco's modified Eagle's medium supplemented with 2 mM glutamine, 10% fetal bovine serum, 1×NEAA, β-ME, 1× pen/strep, and 25 mM HEPES in 175 cm^2 culture flasks. For all optical assays, the cells were seeded at 30,000/well in 384-well matrigel-coated plates and cultured for 2 hrs at 37° C. before culturing at 27° C. for 24 hrs for the potentiator assay. For the correction assays, the cells are cultured at 27° C. or 37° C. with and without compounds for 16-24 hours.
What is called EC30 is the concentration needed for an effect of 30%. Consider `CC1CCC(Oc2cccc(S(=O)(=O)NC(=O)c3cccnc3N3CC(C)CC3(C)C)n2)CC1` (stereo not shown) [Compound 2336, N—[[6-(4-methylcyclohexoxy)-2-pyridyl]sulfonyl]-2-(2,2,4-trimethylpyrrolidin-1-yl)pyridine-3-carboxamide], for which the EC30 was less than 3000 nM.

In the case of `C[C@@H]1CN(c2nc(-c3cccc(OC(F)(F)F)c3)ccc2C(=O)NS(=O)(=O)N2CC[C@H](N)C2)C(C)(C)C1` [Compound 2029, N-[(3S)-3-aminopyrrolidin-1-yl]sulfonyl-6-[3-(trifluoromethoxy)phenyl]-2-[(4S)-2,2,4-trimethylpyrrolidin-1-yl]pyridine-3-carboxamide], the EC30 was less than 3000 nM.

Turning to `CCOc1cc(C)cc(-c2ccc(C(=O)NS(=O)(=O)c3cc[nH]n3)c(Oc3c(C)cc(C)cc3C)n2)n1` [Compound 2301, 6-(6-ethoxy-4-methyl-2-pyridyl)-N-(1H-pyrazol-3-ylsulfonyl)-2-(2,4,6-trimethylphenoxy)pyridine-3-carboxamide], the EC30 was less than 3000 nM.

For `COc1cc(F)c(-c2ccc(C(=O)NS(=O)(=O)c3cccnc3N)c(N3C[C@@H](C)CC3(C)C)n2)cc1F` [Compound 2388, N-[(2-amino-3-pyridyl)sulfonyl]-6-(2,5-difluoro-4-methoxy-phenyl)-2-[(4S)-2,2,4-trimethylpyrrolidin-1-yl]pyridine-3-carboxamide], the EC30 is less than 3000 nM.

Take `CC1CN(c2ncccc2C(=O)NS(=O)(=O)c2cccc(OCc3ccccc3Cl)n2)C(C)(C)C1` (stereo not shown) [Compound 2273, N—[[6-[(2-chlorophenyl)methoxy]-2-pyridyl]sulfonyl]-2-(2,2,4-trimethylpyrrolidin-1-yl)pyridine-3-carboxamide]: the EC30 was less than 3000 nM.

`Cc1c(F)cccc1-c1ccc(C(=O)NS(=O)(=O)N2CC[C@H](N)C2)c(N2C[C@@H](C)CC2(C)C)n1` [Compound 2199, N-[(3S)-3-aminopyrrolidin-1-yl]sulfonyl-6-(3-fluoro-2-methyl-phenyl)-2-[(4S)-2,2,4-trimethylpyrrolidin-1-yl]pyridine-3-carboxamide]: the EC30 fell in the range of 3000 to 10000 nM.

As to `CC1CN(c2ncccc2C(=O)NS(=O)(=O)c2cccc(Oc3cccc(Cl)c3Cl)n2)C(C)(C)C1` (stereo not shown) [Compound 2720], the EC30 is less than 3000 nM.

Turning to `C[C@@H]1CN(c2nc(-c3ccc4ccccc4c3)ccc2C(=O)NS(=O)(=O)c2cccnc2N)C(C)(C)C1` [Compound 2280, N-[(2-amino-3-pyridyl)sulfonyl]-6-(2-naphthyl)-2-[(4S)-2,2,4-trimethylpyrrolidin-1-yl]pyridine-3-carboxamide], the 30% effect concentration (EC30) is less than 3000 nM.

Turning to `CC1CN(c2ncccc2C(=O)NS(=O)(=O)c2cccc(NCc3cccc(F)c3F)n2)C(C)(C)C1` (stereo not shown) [Compound 2640, N—[[6-[(2,3-difluorophenyl)methylamino]-2-pyridyl]sulfonyl]-2-(2,2,4-trimethylpyrrolidin-1-yl)pyridine-3-carboxamide], the 30% effect concentration (EC30) is less than 3000 nM.

With `C[C@@H]1CN(c2nc(-c3ccccc3OC(F)(F)F)ccc2C(=O)NS(=O)(=O)c2ccc[nH]c2=O)C(C)(C)C1` [Compound 2514, N-[(2-oxo-1H-pyridin-3-yl)sulfonyl]-6-[2-(trifluoromethoxy)phenyl]-2-[(4S)-2,2,4-trimethylpyrrolidin-1-yl]pyridine-3-carboxamide], the EC30 was less than 3000 nM.

As to `Cc1cc(C)cc(-c2ccc(C(=O)NS(=O)(=O)c3cccnc3N)c(N3C[C@@H](C)CC3(C)C)n2)c1` [Compound 2127, N-[(2-amino-3-pyridyl)sulfonyl]-6-(3,5-dimethylphenyl)-2-[(4S)-2,2,4-trimethylpyrrolidin-1-yl]pyridine-3-carboxamide], the EC30 was less than 3000 nM.

In the case of `CC(C)COc1cc(F)cc(-c2ccc(C(=O)NS(=O)(=O)c3cccc(N)n3)c(N3CC(C(C)(C)C)CC3(C)C)n2)c1` (stereo not shown) [Compound 2538, N-[(6-amino-2-pyridyl)sulfonyl]-2-(4-tert-butyl-2,2-dimethyl-pyrrolidin-1-yl)-6-(3-fluoro-5-isobutoxy-phenyl)pyridine-3-carboxamide], the EC30 was less than 3000 nM.

The experiment is the same for the next values; noted with them: Table 3; compounds of Table 1 as modulators of CFTR activity; protocol not stated.
With `COc1cccc(S(=O)(=O)NC(=O)c2ccc(-c3cc(F)cc(OCC(C)C)c3)nc2N2CCC(C)(C)CC2)c1` [Compound 510, 2-(4,4-dimethyl-1-piperidyl)-6-(3-fluoro-5-isobutoxy-phenyl)-N-(3-methoxyphenyl)sulfonyl-pyridine-3-carboxamide], the 30% effect concentration (EC30) result is on record as “+++ (“+++” means <3 uM)”.

As for `Cc1cc(C)c(Oc2nc(C(C)(C)C)ccc2C(=O)NS(=O)(=O)c2ccccc2)c(C)c1` [Compound 341, N-(benzenesulfonyl)-6-tert-butyl-2-(2,4,6-trimethylphenoxy)pyridine-3-carboxamide], the EC30 result is recorded as “+++ (“+++” means <3 uM)”.

For `COc1ccc(-c2ccc(C(=O)NS(=O)(=O)c3cccc(N)n3)c(N3[C@H](C)CC[C@@H]3C)n2)cn1` [Compound 726, N-[(6-amino-2-pyridyl)sulfonyl]-2-[(2S,5R)-2,5-dimethylpyrrolidin-1-yl]-6-(6-methoxy-3-pyridyl)pyridine-3-carboxamide], the EC30 result is “++ (“++” means between 3 uM and 10 uM)”.

Take `Cc1cc(C(C)(C)C)cc(C)c1Cn1nc(C(C)(C)C)cc1C(=O)NS(=O)(=O)c1ccccc1` [Compound 443, N-(benzenesulfonyl)-5-tert-butyl-2-[(4-tert-butyl-2,6-dimethyl-phenyl)methyl]pyrazole-3-carboxamide]: the EC30 result is on record as “+ (“+” means greater than 10 uM)”.

As for `COc1cc(F)ccc1-c1ccc(C(=O)NS(=O)(=O)c2ccc[nH]c2=O)c(Oc2c(C)cc(C)cc2C)n1` [Compound 608, 6-(4-fluoro-2-methoxy-phenyl)-N-[(2-oxo-1H-pyridin-3-yl)sulfonyl]-2-(2,4,6-trimethylphenoxy)pyridine-3-carboxamide], the 30% effect concentration (EC30) result is “++ (“++” means between 3 uM and 10 uM)”.

In the case of `Cc1cc(C)c(CN2C[C@@H](c3ccccc3)C[C@H]2C(=O)NS(=O)(=O)c2cccc(N)n2)c(C)c1` [Compound 236, (2S,4R)—N-[(6-Amino-2-pyridyl)sulfonyl]-4-phenyl-1-[(2,4,6-trimethylphenyl)methyl]pyrrolidine-2-carboxamide], the concentration for an effect of 30% (EC30) result is “++ (“++” means between 3 uM and 10 uM)”.

As for `Cc1cccc(C)c1Cn1nc(-c2cccc(F)c2)cc1C(=O)NS(=O)(=O)c1ccccc1` [Compound 166, N-(benzenesulfonyl)-2-[(2,6-dimethylphenyl)methyl]-5-(3-fluorophenyl)pyrazole-3-carboxamide], the EC30 result is “+++ (“+++” means <3 uM)”.

As for `COc1c(C)cccc1-c1ccc(C(=O)NS(=O)(=O)c2cccc(N)n2)c(Oc2c(C)cc(C)cc2C)n1` [Compound 477, N-[(6-amino-2-pyridyl)sulfonyl]-6-(2-methoxy-3-methyl-phenyl)-2-(2,4,6-trimethylphenoxy)pyridine-3-carboxamide], the EC30 result was “+++ (“+++” means <3 uM)”.

Take `Cc1cc(C)c(Cn2c(C(=O)NS(=O)(=O)c3ccccc3)cc3cccc(C)c32)c(C)c1` [Compound 354, N-(benzenesulfonyl)-7-methyl-1-[(2,4,6-trimethylphenyl)methyl]indole-2-carboxamide]: the 30% effect concentration (EC30) entry was “+++ (“+++” means <3 uM)”.

In the case of `Cc1cccc(C)c1Cn1nc(C(C)(C)C)cc1C(=O)NS(=O)(=O)c1cccc(N)c1` [Compound 185, N-(3-aminophenyl)sulfonyl-5-tert-butyl-2-[(2,6-dimethylphenyl)methyl]pyrazole-3-carboxamide], the EC30 entry is given as “+++ (“+++” means <3 uM)”.
